Measurements taken from patent publication US20230295200A1 (REGENTS OF THE UNIVERSITY OF MICHIGAN, priority 2022, published 2023).
Each block holds one compound with its values, some of them ahead of it.

Experiments:
STAT5A = molecular target: T1, STAT5A (Homo sapiens, UniProt P42229); assay: Fluorescence polarization (FP) binding assay, STAT5A; settings: FP competition, 5 nM fluorescein-labeled tracer, 200 nM protein, PBS pH7.4
T1 sequence (P42229 1-794): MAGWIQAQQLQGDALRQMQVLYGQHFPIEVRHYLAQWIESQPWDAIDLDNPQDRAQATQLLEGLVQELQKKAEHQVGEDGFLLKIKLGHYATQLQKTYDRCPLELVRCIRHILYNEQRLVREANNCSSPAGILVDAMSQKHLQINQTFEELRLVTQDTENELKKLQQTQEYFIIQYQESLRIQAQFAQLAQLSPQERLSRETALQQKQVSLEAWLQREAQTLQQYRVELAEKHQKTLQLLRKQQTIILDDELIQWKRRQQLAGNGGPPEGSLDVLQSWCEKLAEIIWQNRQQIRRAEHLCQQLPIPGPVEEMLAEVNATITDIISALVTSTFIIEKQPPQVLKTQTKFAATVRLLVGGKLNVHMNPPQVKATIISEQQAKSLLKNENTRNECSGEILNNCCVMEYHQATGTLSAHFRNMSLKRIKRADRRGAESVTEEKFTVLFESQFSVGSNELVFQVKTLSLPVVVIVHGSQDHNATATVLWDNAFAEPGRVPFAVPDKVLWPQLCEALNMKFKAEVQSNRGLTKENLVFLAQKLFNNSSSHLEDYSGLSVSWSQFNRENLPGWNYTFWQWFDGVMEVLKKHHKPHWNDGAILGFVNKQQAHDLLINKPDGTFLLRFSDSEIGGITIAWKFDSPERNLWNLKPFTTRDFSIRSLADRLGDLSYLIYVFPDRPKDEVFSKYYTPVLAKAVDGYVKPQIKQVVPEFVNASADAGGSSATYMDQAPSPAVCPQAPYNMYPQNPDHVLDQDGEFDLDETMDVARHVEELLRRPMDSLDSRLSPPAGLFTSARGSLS
Summary of the method: (§1)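 Each well holds 200 nM STAT5 and/or STAT6 with 5 nM fluorescent tracer in PBS pH 7.4 (0.01% BGG, 0.01% Tween-20, 2 mM DTT). Binding reaches equilibrium over 1 h at room temperature after brief shaking, and polarization data are fitted nonlinearly.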

STAT6 protein = molecular target: T2, STAT6 protein (Homo sapiens, UniProt P42226); assay: Fluorescence polarization (FP) binding assay, STAT6; settings: FP competition, 5 nM fluorescein-labeled tracer, 200 nM protein, PBS pH7.4; read-out: Binding STAT6
T2 sequence (P42226 1-847): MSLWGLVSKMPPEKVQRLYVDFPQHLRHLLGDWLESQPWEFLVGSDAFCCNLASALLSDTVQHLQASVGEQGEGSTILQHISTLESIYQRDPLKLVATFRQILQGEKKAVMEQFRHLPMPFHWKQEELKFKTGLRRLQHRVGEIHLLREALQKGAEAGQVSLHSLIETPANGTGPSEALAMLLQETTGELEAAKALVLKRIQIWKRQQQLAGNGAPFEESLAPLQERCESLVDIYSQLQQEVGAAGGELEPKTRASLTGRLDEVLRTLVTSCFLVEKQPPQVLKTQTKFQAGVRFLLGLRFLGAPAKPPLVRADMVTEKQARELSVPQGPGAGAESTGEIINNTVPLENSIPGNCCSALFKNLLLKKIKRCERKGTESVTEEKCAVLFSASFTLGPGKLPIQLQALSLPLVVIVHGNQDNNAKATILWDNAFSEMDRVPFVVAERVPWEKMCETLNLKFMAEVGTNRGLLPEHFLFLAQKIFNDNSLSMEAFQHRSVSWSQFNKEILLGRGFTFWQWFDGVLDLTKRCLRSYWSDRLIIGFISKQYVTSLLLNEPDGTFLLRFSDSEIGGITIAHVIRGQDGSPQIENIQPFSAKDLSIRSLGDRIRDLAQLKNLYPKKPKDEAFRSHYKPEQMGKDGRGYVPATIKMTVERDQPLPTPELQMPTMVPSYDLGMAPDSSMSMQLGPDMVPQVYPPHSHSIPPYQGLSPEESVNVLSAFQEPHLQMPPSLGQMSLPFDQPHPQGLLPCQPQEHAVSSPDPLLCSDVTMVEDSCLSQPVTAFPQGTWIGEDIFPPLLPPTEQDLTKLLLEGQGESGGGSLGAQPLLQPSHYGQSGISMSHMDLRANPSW
Summary of the method: as §1

Ki (STAT5A): > 10000 nM | Ki (STAT6 protein): > 10000 nM
Structure (SMILES): CC(C)(C)[C@H](NC(=O)c1cc2cc(C(F)(F)P(=O)(O)O)ccc2s1)C(=O)N1Cc2ccccc2C[C@H]1C(=O)N1CCOC(c2ccccn2)C1 (stereo partly drawn) [Compound 216, ((2-(((2S)-3,3-dimethyl-1-oxo-1-((3S)-3-(2-(pyridin-2-yl)morpholine-4-carbonyl)-3,4-dihydroisoquinolin-2(1H)-yl)butan-2-yl)carbamoyl)benzo[b]thiophen-5-yl)difluoromethyl)phosphonic acid]

Ki (STAT5A): 1000 to 10000 nM | Ki (STAT6 protein): 1000 to 10000 nM
Structure (SMILES): CCO[C@H]1CCN(C(=O)[C@@H](NC(=O)c2cc3cc(C(F)(F)P(=O)(O)O)ccc3s2)C(C)(C)C)[C@@H]1C(=O)N1CCO[C@H](c2ccccc2)C1 [Compound 308, ((2-(((S)-1-((2S,3S)-3-ethoxy-2-((R)-2-phenylmorpholine-4-carbonyl)pyrrolidin-1-yl)-3,3-dimethyl-1-oxobutan-2-yl)carbamoyl)benzo[b]thiophen-5-yl)difluoromethyl)phosphonic acid]

Ki (STAT5A): 1000 to 10000 nM | Ki (STAT6 protein): 100 to 1000 nM
Structure (SMILES): CN(C)C(=O)CCN(C(=O)[C@@H]1CCCN1C(=O)[C@@H](NC(=O)c1cc2cc(C(F)(F)P(=O)(O)O)ccc2s1)C(C)(C)C)c1ccc(-c2nccs2)cc1 [Compound 309, ((2-(((S)-1-((S)-2-((3-(dimethylamino)-3-oxopropyl)(4-(thiazol-2-yl)phenyl)carbamoyl)pyrrolidin-1-yl)-3,3-dimethyl-1-oxobutan-2-yl)carbamoyl)benzo[b]thiophen-5-yl)difluoromethyl)phosphonic acid]

Ki (STAT5A): 1000 to 10000 nM | Ki (STAT6 protein): 1000 to 10000 nM
Structure (SMILES): CN(C)C(=O)CCN(C(=O)[C@@H]1CCCN1C(=O)[C@@H](NC(=O)c1cc2cc(C(F)(F)P(=O)(O)O)ccc2s1)C(C)(C)C)c1ccc(-c2ccccc2)cc1 [Compound 318]

Ki (STAT5A): > 10000 nM | Ki (STAT6 protein): 1000 to 10000 nM
Structure (SMILES): CN(C)C(=O)CCN(C(=O)[C@@H]1CCCN1C(=O)[C@@H](NC(=O)c1cc2cc(C(F)(F)P(=O)(O)O)ccc2s1)C(C)(C)C)c1cccc(-c2nccs2)c1 [Compound 320, ((2-(((S)-1-((S)-2-((3-(dimethylamino)-3-oxopropyl)(3-(thiazol-2-yl)phenyl)carbamoyl)pyrrolidin-1-yl)-3,3-dimethyl-1-oxobutan-2-yl)carbamoyl)benzo[b]thiophen-5-yl)difluoromethyl)phosphonic acid]

The remaining lines, values behind:

Structure (SMILES): CC(C)(C)[C@H](NC(=O)c1cc2cc(C(F)(F)P(=O)(O)O)ccc2s1)C(=O)N1CCC[C@H]1C(=O)Nc1ccc(-c2ccccc2)s1 [Compound 305, ((2-(((S)-3,3-dimethyl-1-oxo-1-((S)-2-((5-phenylthiophen-2-yl)carbamoyl)pyrrolidin-1-yl)butan-2-yl)carbamoyl)benzo[b]thiophen-5-yl)difluoromethyl)phosphonic acid]
Ki (STAT5A): 100 to 1000 nM | Ki (STAT6 protein): 1000 to 10000 nM

Structure (SMILES): CC(C)(C)[C@H](NC(=O)c1cc2cc(C(F)(F)P(=O)(O)O)ccc2s1)C(=O)N1CCCCC[C@H]1C(=O)Nc1ccc(-c2ccccc2)s1 [Compound 306, ((2-(((S)-3,3-dimethyl-1-oxo-1-((S)-2-((5-phenylthiophen-2-yl)carbamoyl)azepan-1-yl)butan-2-yl)carbamoyl)benzo[b]thiophen-5-yl)difluoromethyl)phosphonic acid]
Ki (STAT5A): 1000 to 10000 nM | Ki (STAT6 protein): > 10000 nM

Structure (SMILES): CCO[C@@H]1CCN(C(=O)[C@@H](NC(=O)c2cc3cc(C(F)(F)P(=O)(O)O)ccc3s2)C(C)(C)C)[C@@H]1C(=O)N1CCO[C@H](c2ccccc2)C1 [Compound 307, ((2-(((S)-1-((2S,3R)-3-ethoxy-2-((R)-2-phenylmorpholine-4-carbonyl)pyrrolidin-1-yl)-3,3-dimethyl-1-oxobutan-2-yl)carbamoyl)benzo[b]thiophen-5-yl)difluoromethyl)phosphonic acid]
Ki (STAT5A): 1000 to 10000 nM | Ki (STAT6 protein): 100 to 1000 nM

Structure (SMILES): CN(C)C(=O)CCN(C(=O)[C@@H]1CCCN1C(=O)[C@@H](NC(=O)c1cc2cc(C(F)(F)P(=O)(O)O)ccc2s1)C(C)(C)C)c1ccc2ccccc2c1 [Compound 317, ((2-(((S)-1-((S)-2-((3-(dimethylamino)-3-oxopropyl)(naphthalen-2-yl)carbamoyl)pyrrolidin-1-yl)-3,3-dimethyl-1-oxobutan-2-yl)carbamoyl)benzo[b]thiophen-5-yl)difluoromethyl)phosphonic acid]
Ki (STAT5A): 1000 to 10000 nM | Ki (STAT6 protein): 100 to 1000 nM
